Experiments:
Experiment in all cases: SILAC LC-MS ATP acyl phosphate probe competition, native kinases in HEK293T
Assay type in all cases: binding
[1] = biological target: T1, SLK (CTCL tumor antigen se20-9) (Homo sapiens, UniProt Q9H2G2); settings: site Lys2; ATP 1 mM; Ketanserin, Ritanserin 100 μM; RF001 1 mM
T1 construct: Native kinases; endogenous in cells; host or cells: HEK293T soluble proteome
Method in brief: (§1)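 Light and heavy SILAC HEK293T proteomes (2 mg/ml in kinase buffer) were pre-treated with DMSO or compound (50× stock in DMSO) for 30 min at 25° C, then mixed 1:1, reduced, alkylated and digested with trypsin/Lys-C. Desthiobiotin-labelled peptides were avidin-enriched and analysed by LC-MS/MS on an Orbitrap, top-10 data-dependent acquisition.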

[2] = biological target: T2, KS6A1 (Ribosomal protein S6 kinase alpha 1) (Homo sapiens, UniProt Q15418); settings: site ACT; ATP 1 mM; Ketanserin, Ritanserin 100 μM; RF001 1 mM
T2 construct: measured against >50 native kinases quantified in HEK293T soluble proteomes; endogenous in cells; host or cells: HEK293T soluble proteome
Method in brief: as §1

[3] = biological target: T3, SMG1 (Serine/threonine-protein kinase SMG1) (Homo sapiens, UniProt Q96Q15); settings: site ATP; ATP 1 mM; Ketanserin, Ritanserin 100 μM; RF001 1 mM
T3 construct: Native kinases; endogenous in cells; host or cells: HEK293T soluble proteome
T3 sequence (Q96Q15 whole entry): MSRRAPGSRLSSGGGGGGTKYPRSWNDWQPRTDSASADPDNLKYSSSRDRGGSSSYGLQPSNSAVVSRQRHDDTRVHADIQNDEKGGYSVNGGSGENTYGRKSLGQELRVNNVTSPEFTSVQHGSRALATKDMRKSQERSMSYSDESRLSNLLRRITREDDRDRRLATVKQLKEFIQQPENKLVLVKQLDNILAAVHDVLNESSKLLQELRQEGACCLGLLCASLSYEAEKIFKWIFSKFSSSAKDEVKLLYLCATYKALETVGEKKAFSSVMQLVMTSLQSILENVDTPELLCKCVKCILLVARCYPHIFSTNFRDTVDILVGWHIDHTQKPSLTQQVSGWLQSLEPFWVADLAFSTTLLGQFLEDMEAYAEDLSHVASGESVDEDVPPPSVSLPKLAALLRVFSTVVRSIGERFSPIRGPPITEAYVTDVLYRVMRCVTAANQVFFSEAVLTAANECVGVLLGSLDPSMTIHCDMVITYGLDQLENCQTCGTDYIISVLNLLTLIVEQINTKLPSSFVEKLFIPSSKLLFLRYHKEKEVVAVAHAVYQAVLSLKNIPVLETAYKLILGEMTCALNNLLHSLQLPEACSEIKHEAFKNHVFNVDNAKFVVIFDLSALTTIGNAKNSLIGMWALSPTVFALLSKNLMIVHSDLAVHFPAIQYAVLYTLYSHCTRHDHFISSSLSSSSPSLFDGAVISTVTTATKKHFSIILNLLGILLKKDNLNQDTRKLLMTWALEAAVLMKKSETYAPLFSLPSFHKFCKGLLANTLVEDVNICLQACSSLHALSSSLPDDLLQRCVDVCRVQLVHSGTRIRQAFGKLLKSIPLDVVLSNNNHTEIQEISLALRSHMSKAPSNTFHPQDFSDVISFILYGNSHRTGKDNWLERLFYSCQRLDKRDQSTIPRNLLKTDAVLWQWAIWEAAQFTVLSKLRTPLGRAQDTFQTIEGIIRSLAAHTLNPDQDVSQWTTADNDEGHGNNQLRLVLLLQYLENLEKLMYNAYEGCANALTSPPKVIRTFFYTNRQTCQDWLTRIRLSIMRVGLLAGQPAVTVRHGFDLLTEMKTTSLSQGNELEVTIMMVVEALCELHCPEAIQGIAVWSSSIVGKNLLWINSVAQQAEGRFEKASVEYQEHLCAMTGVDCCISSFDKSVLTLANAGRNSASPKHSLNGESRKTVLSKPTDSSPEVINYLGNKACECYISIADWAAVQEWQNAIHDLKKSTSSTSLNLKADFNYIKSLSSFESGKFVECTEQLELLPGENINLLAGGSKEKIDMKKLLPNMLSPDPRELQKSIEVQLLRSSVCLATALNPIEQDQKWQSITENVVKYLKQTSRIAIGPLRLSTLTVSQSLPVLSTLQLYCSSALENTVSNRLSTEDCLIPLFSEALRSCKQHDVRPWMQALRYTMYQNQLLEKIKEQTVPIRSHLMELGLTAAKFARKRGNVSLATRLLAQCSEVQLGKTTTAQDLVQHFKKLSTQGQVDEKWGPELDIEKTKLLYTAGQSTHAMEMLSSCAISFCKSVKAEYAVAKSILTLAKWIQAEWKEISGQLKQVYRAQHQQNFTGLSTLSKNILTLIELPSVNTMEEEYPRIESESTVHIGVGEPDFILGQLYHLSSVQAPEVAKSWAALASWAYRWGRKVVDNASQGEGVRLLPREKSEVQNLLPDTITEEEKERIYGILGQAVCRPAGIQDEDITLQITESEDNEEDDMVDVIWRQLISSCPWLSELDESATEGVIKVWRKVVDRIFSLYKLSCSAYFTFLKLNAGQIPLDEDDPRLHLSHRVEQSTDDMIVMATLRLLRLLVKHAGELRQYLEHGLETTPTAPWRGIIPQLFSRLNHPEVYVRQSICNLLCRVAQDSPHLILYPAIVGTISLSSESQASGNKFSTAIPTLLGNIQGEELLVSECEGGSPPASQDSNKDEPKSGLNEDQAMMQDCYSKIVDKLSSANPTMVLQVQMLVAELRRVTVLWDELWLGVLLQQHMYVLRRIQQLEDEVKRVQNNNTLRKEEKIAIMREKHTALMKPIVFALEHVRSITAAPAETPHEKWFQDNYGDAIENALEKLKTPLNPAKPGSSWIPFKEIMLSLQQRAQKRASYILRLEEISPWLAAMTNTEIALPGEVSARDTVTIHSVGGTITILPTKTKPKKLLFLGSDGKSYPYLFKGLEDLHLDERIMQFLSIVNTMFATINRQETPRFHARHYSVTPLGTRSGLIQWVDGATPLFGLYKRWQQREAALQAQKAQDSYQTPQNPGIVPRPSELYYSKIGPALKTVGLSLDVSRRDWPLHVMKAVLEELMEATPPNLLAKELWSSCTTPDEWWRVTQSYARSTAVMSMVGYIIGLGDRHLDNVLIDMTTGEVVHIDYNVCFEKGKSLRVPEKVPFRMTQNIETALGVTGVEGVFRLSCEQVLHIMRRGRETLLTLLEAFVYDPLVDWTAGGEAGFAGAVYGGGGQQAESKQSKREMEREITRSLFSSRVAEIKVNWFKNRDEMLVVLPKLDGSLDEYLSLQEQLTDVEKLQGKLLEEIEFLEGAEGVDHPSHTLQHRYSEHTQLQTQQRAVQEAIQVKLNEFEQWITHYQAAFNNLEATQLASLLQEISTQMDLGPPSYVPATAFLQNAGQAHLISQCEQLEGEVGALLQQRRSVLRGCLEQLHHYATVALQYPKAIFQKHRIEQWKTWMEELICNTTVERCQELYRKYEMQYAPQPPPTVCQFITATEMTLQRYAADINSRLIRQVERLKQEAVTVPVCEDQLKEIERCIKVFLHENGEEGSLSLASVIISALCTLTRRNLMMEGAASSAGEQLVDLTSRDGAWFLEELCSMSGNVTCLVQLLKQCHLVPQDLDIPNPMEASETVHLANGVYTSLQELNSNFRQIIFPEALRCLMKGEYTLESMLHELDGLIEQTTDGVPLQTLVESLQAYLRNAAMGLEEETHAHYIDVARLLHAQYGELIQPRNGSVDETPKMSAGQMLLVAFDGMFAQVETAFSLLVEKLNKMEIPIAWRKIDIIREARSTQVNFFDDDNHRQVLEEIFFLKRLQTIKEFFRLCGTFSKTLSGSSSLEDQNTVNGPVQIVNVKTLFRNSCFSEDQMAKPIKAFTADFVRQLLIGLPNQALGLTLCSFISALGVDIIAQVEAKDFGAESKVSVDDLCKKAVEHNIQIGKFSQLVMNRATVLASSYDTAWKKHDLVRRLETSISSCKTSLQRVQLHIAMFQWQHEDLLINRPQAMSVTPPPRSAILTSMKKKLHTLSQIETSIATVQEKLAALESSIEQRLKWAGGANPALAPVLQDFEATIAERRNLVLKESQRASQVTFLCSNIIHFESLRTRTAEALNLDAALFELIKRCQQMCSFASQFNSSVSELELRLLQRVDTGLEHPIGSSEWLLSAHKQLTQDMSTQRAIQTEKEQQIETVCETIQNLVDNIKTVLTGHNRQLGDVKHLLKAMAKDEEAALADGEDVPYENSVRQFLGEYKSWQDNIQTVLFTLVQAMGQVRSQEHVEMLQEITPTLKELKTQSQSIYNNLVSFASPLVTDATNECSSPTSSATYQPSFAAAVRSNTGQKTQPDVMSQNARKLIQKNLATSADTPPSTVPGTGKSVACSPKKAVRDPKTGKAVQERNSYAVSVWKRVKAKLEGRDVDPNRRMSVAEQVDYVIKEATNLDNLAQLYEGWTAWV
Method in brief: as §1

[4] = biological target: T4, FER (Proto-oncogene tyrosine-protein kinase FER) (Homo sapiens, UniProt P16591); settings: site Lys1 (K591); ATP 1 mM; Ketanserin, Ritanserin 100 μM; RF001 1 mM
T4 construct: measured against >50 native kinases quantified in HEK293T soluble proteomes; endogenous in cells; host or cells: HEK293T soluble proteome
Method in brief: as §1

T1 sequence (Q9H2G2 whole entry): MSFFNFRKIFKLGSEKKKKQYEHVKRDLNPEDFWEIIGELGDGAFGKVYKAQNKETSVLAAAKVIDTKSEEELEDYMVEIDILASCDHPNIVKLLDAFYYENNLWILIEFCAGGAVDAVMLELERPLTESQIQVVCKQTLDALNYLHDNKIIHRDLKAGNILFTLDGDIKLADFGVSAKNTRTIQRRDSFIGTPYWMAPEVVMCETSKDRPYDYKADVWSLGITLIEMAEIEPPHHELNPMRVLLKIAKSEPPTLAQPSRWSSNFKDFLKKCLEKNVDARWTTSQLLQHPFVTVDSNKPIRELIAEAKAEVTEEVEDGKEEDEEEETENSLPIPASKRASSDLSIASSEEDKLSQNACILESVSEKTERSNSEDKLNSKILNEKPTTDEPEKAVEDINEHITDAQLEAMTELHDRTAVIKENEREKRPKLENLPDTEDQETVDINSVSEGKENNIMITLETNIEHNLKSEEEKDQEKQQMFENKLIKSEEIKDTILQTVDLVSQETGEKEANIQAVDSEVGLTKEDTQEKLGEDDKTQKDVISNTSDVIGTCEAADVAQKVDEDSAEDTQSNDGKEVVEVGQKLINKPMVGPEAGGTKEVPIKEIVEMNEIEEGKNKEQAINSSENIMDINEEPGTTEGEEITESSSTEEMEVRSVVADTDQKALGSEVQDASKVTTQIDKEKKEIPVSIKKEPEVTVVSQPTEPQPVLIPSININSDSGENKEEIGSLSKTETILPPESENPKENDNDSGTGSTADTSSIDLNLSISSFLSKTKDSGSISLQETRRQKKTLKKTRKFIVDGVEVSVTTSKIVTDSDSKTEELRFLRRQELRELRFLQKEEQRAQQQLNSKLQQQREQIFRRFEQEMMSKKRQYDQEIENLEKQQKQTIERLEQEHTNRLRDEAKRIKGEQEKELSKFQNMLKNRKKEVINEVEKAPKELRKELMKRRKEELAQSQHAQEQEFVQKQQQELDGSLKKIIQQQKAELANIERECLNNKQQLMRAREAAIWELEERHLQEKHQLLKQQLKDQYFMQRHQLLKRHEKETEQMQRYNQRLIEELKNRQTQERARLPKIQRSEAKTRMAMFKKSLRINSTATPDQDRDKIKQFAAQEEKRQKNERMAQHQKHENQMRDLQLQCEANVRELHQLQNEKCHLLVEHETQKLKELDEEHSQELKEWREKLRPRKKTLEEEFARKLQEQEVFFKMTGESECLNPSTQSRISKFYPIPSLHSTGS

## O=C(c1ccc(F)cc1)C1CCN(CCn2c(=O)[nH]c3ccccc3c2=O)CC1 [Ketanserin]
[1]
  SILAC ratio, SLK probe-modified peptide: 1.3
[2]
  SILAC ratio, KS6A1 probe-modified peptide: 1.4
[3]
  SILAC ratio, SMG1 probe-modified peptide: 1.3
[4]
  SILAC ratio, FER probe-modified peptide: 1.4

## Fc1ccc(C(=C2CCNCC2)c2ccc(F)cc2)cc1 [RF001, 4-(Bis(4-fluorophenyl)methylene) piperidine]
[1]
  SILAC ratio, SLK probe-modified peptide: 1.5
[2]
  SILAC ratio, KS6A1 probe-modified peptide: 1.3
[3]
  SILAC ratio, SMG1 probe-modified peptide: 1.0
[4]
  SILAC ratio, FER probe-modified peptide: 1.2

## Cc1nc2sccn2c(=O)c1CCN1CCC(=C(c2ccc(F)cc2)c2ccc(F)cc2)CC1 [Ritanserin]
[1]
  SILAC ratio, SLK probe-modified peptide: 3.0
[2]
  SILAC ratio, KS6A1 probe-modified peptide: 2.1
[3]
  SILAC ratio, SMG1 probe-modified peptide: 1.7
[4]
  SILAC ratio, FER probe-modified peptide: 7.9

— patent US12643867B2, “Compositions and uses thereof” (University of Virginia Patent Foundation, priority 2017, dated 2026)
